The record followed here is US9295722B2, “Bacterial glycolipid activation of CD1d-restricted NKT cells” (priority 2005, dated 2016).

Holding throughout (type): cell-based
One test deals with NKT cells. Briefly: activation of NKT cells in vitro by synthetic glycolipids. The source says: Activation of NKT cells may be measured in vitro or ex vivo by any suitable method. An example of an in vitro test permitting evaluation of NKT cell activation is co-culturing NKT cells with antigen presenting cells (APC), such as dendritic cells (DC), in the presence of a bacterial glycolipid activator or putative activator, and subsequently assaying for IFN-γ or other secreted cytokines in the supernatant. Alternatively, activation of NKT cells can be measured ex vivo by administering a bacterial glycolipid antigen to a subject or by administering CD1d^+ antigen presenting cells after ex vivo contact with bacterial glycolipids to a subject. The NKT cells from these subjects can be isolated by, e.g., CD1d-tetramer staining and gating via flow cytometry, and subsequently assayed for surface CD69 (early T-cell activation antigen) and/or intracellular IFN-γ by suitable methods.
Some representative examples of suitable bacterial glycolipids for complexing with CD1d molecules and activating NKT cells are depicted in FIG. 5. […] The remaining compounds depicted in FIG. 5 were rationally designed based on the following features determined to be common among glycolipids capable of activating NKT cells: 1) an alpha-type glycosidic linkage and 2) oxidation at the 6-position on the carbohydrate moiety of the glycolipid.

Test [1] deals with human Vα24-Jα18 NKT cells. Briefly: human Vα24-Jα18 NKT cells co-cultured with DC pulsed with synthetic glycolipid. The settings on record: for IFN-γ secretion: DC pulsed with 0.001 to 1000 ng/mL glycolipid, 48 hours. The procedure:
(§1) Stimulation assays were performed with whole spleen cells (5×10^5 per 200 μl well) or with purified T cells and antigen presenting cells. T cell populations used in the assays comprised sorted CD1d-Gal-Cer+ mouse spleen cells (5×10^4 per 200 μl well), human peripheral blood lymphocytes (PBL) (5×10^5 per 200 μl well) (obtained after Ficoll centrifugation of heparinized blood) or human NKT cell lines (2.5×10^5 per 200 μl well). Human Vα24 NKT cells were derived from PBL stimulated with αGal-Cer and were maintained by repeated rounds of stimulation with PHA and IL-2 in the presence of irradiated PBMC and EBV transformed B cells in vitro. Antigen presenting cells were dendritic cells that were derived from bone marrow, stimulated with GMCSF/IL-4 (2 ng/mL and 5 ng/mL, Biosource) and cultured at 2.5×10^5 per 200 μl well for mouse assays, and irradiated allogeneic human PBMC fresh or cultured for 5 days with recombinant human GMCSF/IL-4, ([…] of each cytokine, R&D Systems) (2×10^5 per 200 μl well) for human assays. Cells were washed twice and starved for 6 hours in medium alone before addition to the stimulation experiments.
(§2) NKT cells were stimulated with heat-killed bacteria as indicated above for 48 hrs in 96 well round bottom plates in RPMI 1640 (Biofluids) supplemented with glutamine, antibiotics, 5×10^−5 M 2-ME and 10% FCS (mouse studies) or 5% AB serum (human studies). Concentrations of mouse and human IFN-γ. in the supernatant were measured at 48 hours using the respective ELISA kits (BD Bioscience, lower detection limit of 12.5 pg/ml).
(§3) The immunological properties of the above compounds in NKT cells were measured. Human Vα24-Jα18 NKT cells and fresh purified mouse NKT cells were co-cultured with DC pulsed with αGal-Cer or synthetic glycolipid at concentrations ranging from 0.001 to 1000 ng/mL. IFN-γ production was measured at 48 hours as described above.

For test [2], the system named is mouse NKT cells. As to the kind of experiment: fresh purified mouse NKT cells co-cultured with DC pulsed with synthetic glycolipid. The note with it: for IFN-γ secretion: DC pulsed with 0.001 to 1000 ng/mL glycolipid, 48 hours. The procedure: as §1, §2, §3
For test [3], the system named is mouse NKT cells. As to the kind of experiment: mouse CD1d tetramer-sorted NKT cells co-cultured with bone marrow derived DC, IFN-γ ELISA. The settings on record: co-cultured with CD1+/− or CD1−/− DC; 48 hrs. The procedure:
(§4) Bacterial strains Sphingomonas capsulata (ATCC 14666) and Salmonella typhimurium R71 were grown in Mueller-Hinton Agar. Ehrlichia muris were prepared as described by Ismail N et al., J. Immunol. 172, 1786-1800 (2004), incorporated herein by reference. Bacteria were heat killed by 2-hour exposure to 74° C. and 2.5-5×10^6 cfu equivalent/well were used for in vitro stimulation.
Stimulation assays were performed with whole spleen cells (5×10^5 per 200 μl well) or with purified T cells and antigen presenting cells. […]
as §2
Whole spleen cells co-cultured with DC of genotype MyD88^−/−, Trif^lps2/lps2 and MyD88^−/−Trif^lps2/lps2 (lacking one or the two adaptors MyD88 and TRIF for TLR signaling) or CD1^−/− were stimulated for 48 hours with 5×10^6 heat killed Salmonella, Sphingomonas or Ehrlichia. Concentrations of mouse and human IFN-γ. in the supernatant were measured at 48 hours using the respective ELISA kits (BD Bioscience, lower detection limit of 12.5 pg/ml).
In general terms: ELISA stands for enzyme-linked immunosorbent assay.

Test [4] deals with human NKT cells. As to the kind of experiment: human NKT cells co-cultured with PBMC-derived DC, IFN-γ ELISA. The settings on record: blocking with 1 μg/mL anti-CD1d antibodies or control IgG1. The procedure:
as §4
Stimulation assays were performed with whole spleen cells (5×10^5 per 200 μl well) or with purified T cells and antigen presenting cells. T cell populations used in the assays comprised sorted CD1d-Gal-Cer+ mouse spleen cells (5×10^4 per 200 μl well), human peripheral blood lymphocytes (PBL) (5×10^5 per 200 μl well) (obtained after Ficoll centrifugation of heparinized blood) or human NKT cell lines (2.5×10^5 per 200 μl well). […]
as §2

In test [5] the test system is human NKT cells. Briefly: CD1d-glycolipid tetramer staining of human NKT cells. As to the method:
(§5) At 6 days post stimulation, CD1d-αGal-Cer, CFSE and αB220 (BD Pharmingen) labeling and staining procedures were performed and cells were analyzed by FACS. To generate CD1d-αGal-Cer tetramers, a mixture of 5 μl of αGal-Cer (from 1 mg/ml stock solution in DMSO), 10 μl of PBS 0.5% Tween 20, 10 μl of biotinylated CD1d (1 mg/ml), and 75 μl of PBS was incubated at 37° C. for 1 hr, and lipid-loaded CD1d was purified by centrifugation dialysis and complexed with streptavidin-APC. (Benlagha K. et al., J. Exp. Med. 191, 1895-1903 (2000).) Cells were analyzed on a FACSCalibur (BD Biosciences) with CellQuest software.
(§6) CD1d tetramers were prepared as described in Example 1 using synthetic glycolipids PBS 30, PBS 59 and PBS 50 and αGal-Cer, and were used to stain human NKT cells and mouse spleen cells.

Test [6] concerns mouse NKT cells. As to the kind of experiment: CD1d-glycolipid tetramer staining of mouse spleen cells. As to the method:
as §5, §6

α-galacturonosylceramide [PBS 59]: the “activation of NKT cells” value in the test on NKT cells is on record as “found to activate NKT cells”. In test [1], the NKT cell proliferation result is “strongly activated” and the IFN-γ secretion entry is recorded as “strongly activated”. Also, in the test on mouse NKT cells [2], the NKT cell proliferation result is on record as “strongly activated” and the IFN-γ secretion result is reported as “strongly activated”.
“β-glucuronosylceramide [PBS 50, reference compound]”: in the test with NKT cells, the “activation of NKT cells” value was “do not activate NKT cells”. The NKT cell proliferation result (in test [1]; in the test with mouse NKT cells [2]) was “did not” in each case. Moreover, the IFN-γ secretion entry (in test [1]; in the test on mouse NKT cells [2]) was “did not” in each case.
`CCCCCCCCCCCCCCCCCCCCCCCCCC(=O)N[C@@H](CO[C@H]1O[C@H](CO)[C@H](O)[C@H](O)[C@H]1O)[C@H](O)[C@H](O)CCCCCCCCCCCCCC` [αGal-Cer, α-galactosylceramide]: the “IFN-γ secretion by mouse NKT cells” value in the test with mouse NKT cells [3] is “secreted IFN-γ in a CD1d-dependent manner”. Besides, in the test with human NKT cells [4], the “IFN-γ secretion by human NKT cells” value was “CD1d-dependent IFN-γ secretion”.
On to α-glucuronosylceramide [PBS 30], for which the “activation of NKT cells” value in the test on NKT cells is given as “found to activate NKT cells”. For the same molecule, in test [1], the NKT cell proliferation entry was “strongly activated” and the IFN-γ secretion entry is given as “strongly activated”. Besides, in the test on mouse NKT cells [2], the NKT cell proliferation entry is reported as “strongly activated” and the IFN-γ secretion entry is “strongly activated”. The “human NKT cells stained by CD1d-glycolipid tetramers” value in the test on human NKT cells [5] is “all”. Besides, the “mouse NKT cells stained by CD1d-glycolipid tetramers” value in the test with mouse NKT cells [6] is about 25%.
